One data set deals with resting Lymphocytes. Briefly: Transfection efficiency analysis, resting lymphocytes. It is filed as cell-based. The protocol:
Primary lymphocytes were suspended in B&K buffer (125 mM KCl, 15 mM NaCl, 1.2 mM MgCl2, 3 mM glucose, 25 mM Hepes, pH 7.4) cell concentration was set from 1×10^7 cells/mL to 6×10^8 cells/mL together with DNA plasmid from 50 μg/mL to 1 mg/mL. Electroporation, 2.3 kV/cm, 400 μs, 4 pulses for small volume experiments (15 μl) or 2.2 kV/cm, 1.6 ms, 1 pulse for large volume experiments (0.5 mL–2 mL) was performed at room temperature. Following electroporation, cells were incubated in B&K buffer for 20 min at 37° C. for small volume experiments, or diluted by 10× volume of culture medium (RPMI-1640+10% fetal bovine serum+1% Pen-strep+2 mM L-glutamine) for large volume experiments. Cells were cultured in culture medium for various periods (up to 72 hours) and the transfection efficiency was analyzed.
Seven transgenes (Ds-Red, eGFP, βGal, hEndostatin, hEPO, hIFNα, hIL-2) were tested in these experiments. […] When pCMV-Ds-Red or pCMV-EGFP was used, the percentage of the fluorescent cells was counted, by FACS or by manual counting under phase contrast and fluorescence microscope, as the transfection efficiency. […] When pCMV-Endostatin was used, the Endostatin concentration in the supernatant was analyzed by ELISA kit from Cytimmune Sciences, Inc. (College Park, Md.). For pCMV-EPO electroporation, the erythropoietin concentration in the supernatant was analyzed by R&D ELISA kit (Minneapolis, Minn.).

The target of data set [1] is T1, hemoglobin (Homo sapiens, UniProt P68871). The following applies: pH 7.4, 37° C.; cited from earlier work.
Data set [2] has as its target T1, hemoglobin. The note with it: relative to DPG; cited from earlier work.

T1 sequence (P69905 2-142 partner limits assumed): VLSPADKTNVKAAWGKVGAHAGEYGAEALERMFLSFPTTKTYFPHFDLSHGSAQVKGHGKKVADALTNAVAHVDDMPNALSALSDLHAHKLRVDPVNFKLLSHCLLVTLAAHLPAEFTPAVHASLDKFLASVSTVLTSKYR
T1 sequence (P68871 2-147 limits assumed): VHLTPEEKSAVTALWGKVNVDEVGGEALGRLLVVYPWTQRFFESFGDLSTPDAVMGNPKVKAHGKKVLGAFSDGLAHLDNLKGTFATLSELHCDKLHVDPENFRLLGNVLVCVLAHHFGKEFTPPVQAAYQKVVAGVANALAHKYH

For the molecule βGal, in the data set on resting Lymphocytes, the “Efficiency (% of + cells)” value was 15% and the Viability is given as 40%.

Consider `O=P(O)(O)O[C@H]1[C@H](OP(=O)(O)O)[C@@H](OP(=O)(O)O)[C@H](OP(=O)(O)O)[C@@H](OP(=O)(O)O)[C@H]1OP(=O)(O)O` [IHP, inositol hexaphosphate], for which the P50 of hemoglobin on hemoglobin [1] is on record as at most 96.4 mm Hg. Also, the “affinity to hemoglobin, higher than DPG” value on hemoglobin [2] is listed as 1000 fold.

These data come from patent US7029916B2, “Apparatus and method for flow electroporation of biological samples” (MAXCYTE, Inc., priority 2001, dated 2006).
